Data set [1] can be described thus: Fluorescence emission spectra, 15 μM in 90% aqueous, 10% DMSO. Type of data set: physicochemical. Conditions: for Red-shifted emission from 3-1 transposition versus known regiochemistry: longest wavelength-emitting species. How it is done:
Compounds 21 and 7 also were characterized by their fluorescence emission spectra. Fluorescence was measured using 15 μM solutions of each compound in a solution that was 90% aqueous, 10% DMSO. For compound 21, the longest wavelength emission observed from the dianions occurred near 680 nm at pH 9. For compound 7 (transposed), the longest wavelength emission observed from the monoanion occurred near 800 nm at pH 9.
Compounds 22 and 8 also were characterized by their fluorescence emission spectra. Fluorescence was measured using 15 μM solutions of each compound in a solution that was 90% aqueous, 10% DMSO For compound 22, the longest wavelength emission observed from the anion occurred near 690 nm at pH 9. […] Given the greater than 800 nm absorbance peak and the typically large Stokes shifts observed in this class of compounds, it is likely that the emission was beyond the working range of the instrument (>850 nm).
Compounds 20 and 15a also were characterized by their fluorescence emission spectra. Fluorescence was measured using 15 μM solutions of each compound in a solution that was 90% aqueous, 10% DMSO. For compound 20a, the longest wavelength emission observed from its corresponding anion, compound 20c, occurred near 640 nm in NaOH (pH 12). For compound 15a (transposed), the longest wavelength emission observed from the corresponding anion, compound 15h, occurred near 760 nm in NaOH.
Compound 15b also was characterized by its fluorescence emission spectrum and compared to C.SNARF-5. Fluorescence was measured using a 15 μM solution of compound 15b in a solution that was 90% aqueous, 10% DMSO. For C.SNARF-5, the longest wavelength emission observed from the anion occurred near 632 nm (Whitaker et al., Anal. Biochem. 1991, 194, 330-344). For compound 15b (transposed), the longest wavelength emission observed from the phenoxide occurred near 770 nm.
Fluorescence was measured using a 15 μM solution of compound 15d in a solution that was 90% aqueous, 10% DMSO. […] For compound 15d (transposed), the longest wavelength emission observed from the phenoxide occurred near 780 nm (NaOH, pH 12).
Compounds 20b and 15g also were characterized by their fluorescence emission spectra. Fluorescence was measured using 15 μM solutions of each compound in a solution that was 90% aqueous, 10% DMSO. For compound 20b, the longest wavelength emission observed from the cation occurred near 640 nm at pH 7.4. For compound 15g (transposed), the longest wavelength emission observed from the cation occurred near 770 nm at pH 7.4.

A short description of data set [2]: Effect of pH / ionization on spectra. Type of data set: physicochemical. The text has this: There are through-space polar interactions between R^18 and the internal bridge oxygen in compounds according to general formulas III, IX, and X. The field effect is further enhanced in the case of symmetric compounds, such as those according to general formula IV when R^19 is oxygen. A unique intramolecular hydrogen-bonding network also is present in such compounds, e.g., compound 8 (FIG. 25). This network produces enhanced negative charge density on the ionizable oxygen atoms, thereby promoting a relatively large bathochromic shift. […] The hydrogen bonding can be seen in compounds such as compound 8 by ^1H NMR spectroscopy. A redistribution of the electronic density around the hydrogen atom occurs upon hydrogen bond formation between the hydroxyl proton, the carbonyl, and the central oxygen of compound 8. […] Evidence of hydrogen bonding was also seen in compound 15a, but to a lesser degree. In compound 15a, the total hydrogen bond distance O—H—O between the hydroxyl at the R^18 position and the xanthene central oxygen is 2.95 Å, which falls in range of common hydrogen bonds.
Known seminaphthorhodafluors display long wavelength absorption at high pH; however, the free amino compound in this series respond to low pH with increased long wavelength absorption.

A short description of data set [3]: UV-visible absorbance spectroscopy, 15 μM in 90% aqueous, 10% DMSO. Format: physicochemical. To be noted: for Red shift of absorption spectra from 3-1 transposition versus known regiochemistry: depending on the ionization state. Here is the method: Compounds 21 and 7 were characterized by UV-visible spectroscopy (FIG. 15). Absorbance was measured using 15 μM solutions of each compound in a solution that was 90% aqueous, 10% DMSO. The peaks at 600 nm (light dashed line) and 675 nm (light solid line) represent the dianions of compounds 21 and 7, respectively, in NaOH (pH 12). The peaks at 590 nm (heavy dashed line) and 650 nm (heavy solid line) represent a mix of mono- and dianions of compound 21 at pH 7.4 and predominantly monoanions of compound 7 at pH 9, respectively.
Compounds 22 and 8 were characterized by UV-visible spectroscopy (FIG. 16). Absorbance was measured using 15 μM solutions of each compound in a solution that was 90% aqueous, 10% DMSO. The peaks at 610 nm (light dashed line) and 685 nm (light solid line) represent the anions of compounds 22 and 8, respectively, in NaOH (pH 12). The peaks at 605 nm (heavy dashed line) and 805 nm (heavy solid line) represent the neutral forms of compounds 22 and 8 at pH 7.4, respectively.
Compounds 20a and 15a were characterized by UV-visible spectroscopy (FIG. 17). Absorbance was measured using 15 μM solutions of each compound in a solution that was 90% aqueous, 10% DMSO. The peaks at 545 nm (light dashed line) and 595 nm (light solid line) represent the respective anions, compounds 20c and 15h, in NaOH (pH 12).
Compound 15b (free amino) was characterized by UV-visible spectroscopy (FIG. 18), and compared to C.SNARF-5 (literature, SNARF=seminaphthorhodafluor). Absorbance was measured using a 15 μM solution of compound 15b in a solution that was 90% aqueous, 10% DMSO. The peak at 535 nm (heavy line) represents the predominantly phenolic form of 15b at pH 6. The peak at 615 nm (light line) represents the phenoxide of compound 15b at in NaOH (pH12). In comparison, C.SNARF-5 produces a peak at 550 nm (anionic form) and a peak at 485 nm (neutral form) (Whitaker et al., Anal. Biochem. 1991, 194, 330-344).
Absorbance was measured using 15 μM solutions of compound 15d in a solution that was 90% aqueous, 10% DMSO. The peak at 570 nm (heavy line) represents the predominantly neutral form of 15d at pH 6. The peak at 630 nm (light line) represents the phenoxide of compound 15d in NaOH (pH 12).
Compounds 20b and 15g were characterized by UV-visible spectroscopy (FIG. 20). Absorbance was measured using 15 μM solutions of each compound in a solution that was 90% aqueous, 10% DMSO. The peaks at 540 nm (dashed line) and 570 nm (solid line) represent the cations of compounds 20b and 15g, respectively, at pH 7.4.

Data set [4] in a line: Absorbance and fluorescence in methanol. Type of data set: physicochemical. Here is the method:
Absorbance and fluorescence of compounds 22 and 8 also were measured in methanol. […] Thus, placement of the hydroxyl group proximal to the xanthene internal oxygen in compound 8 produced a bathochromic shift of 103 nm in the absorption spectrum. The transposition also imparted a corresponding shift in the excitation spectrum, and a large bathochromic shift of 128 nm in the fluorescence emission. Importantly, compound 8 absorbs and emits in the near-infrared with absorption and emission maxima of 701 nm and 816 nm, respectively.
Absorbance and fluorescence of compounds 20a and 15a also were measured in methanol. […] Thus, placement of the hydroxyl group proximal to the xanthene internal oxygen in compound 15a produced a bathochromic shift of 15 nm in the absorbance spectrum. The transposition also imparted a corresponding shift in the excitation spectrum, and a large bathochromic shift of 32 nm in the fluorescence emission.

The nature of data set [5]: Quantum yield in 10:90 DMSO:aqueous solutions. Type of data set: physicochemical. Here is the method:
The quantum yield of yellow-orange emitting 16a was 0.4649, 40 times greater than the corresponding neutral compound 15a. It was slightly higher than the yellow-green emitting neutral compound 20a, and >2 times higher than orange-red emitting anion 20c. The compounds (7.5 μM) were analyzed in 10:90 DMSO:aqueous solutions. Fluorescence emission was readily visible in a darkened room when the solutions were excited from below with 3-watt megaMAX 505 nm ALS system. The emission-enhancing properties afforded through the combination of the 3-1 transposition and methylation is in contrast to previously reported methyl ethers of seminaphthofluorescein compounds.

The conditions of data set [6]: 10 mM HEPES, pH 7.5, 15% (v/v) EtOH, Leytus et al., cited from earlier work.
Data set [7] is described as follows: Spectral properties of rhodamine bis-boronic acids and precursors in DMSO:buffer. Format: physicochemical. Here is the method:
Characterization: The spectral properties of compounds 50-53 were determined. Absorption and fluorescence spectra of solutions of the rhodamine bis-boronic acids 51 and 53, and their respective precursors 50 and 52, are shown in FIGS. 27A-C (in DMSO:buffer 1:9) and 27D-F (DMSO:buffer 1:1). […] Excitation and emission spectra were normalized to their absorbance at the excitation wavelength, and are proportional to quantum yield.

Where [8] appears, read: NaOH (pH 12), anionic/phenoxide form, 90% aqueous 10% DMSO.

Several values for one entry are separate records, joined by “and”; a condition that tells them apart may be missing. Identical values can stand only once. Like-named read-outs stand apart in the source and are kept apart here.

Take `O=C1OC2(c3ccccc31)c1ccc3cccc(O)c3c1Oc1c2ccc2cccc(O)c12` [Compound 7]: the Stokes shift entry in data set [1] is on record as “about 150 nm”. The Longest wavelength emission entry in data set [1] (NaOH (pH 12), anion/phenoxide) was “too weak to be detected or, more likely, beyond the working range of the instrument”; in data set [1] (pH 9), ~800 nm. In addition, the “Red-shifted emission from 3-1 transposition versus known regiochemistry” value in data set [1] is recorded as “about 120 nm”. Further, the “Form below physiological pH of 7.4” value in data set [2] (1:9 DMSO:buffer) is listed as “colorless lactone”. Further, in data set [3] (90% aqueous 10% DMSO), the “Red shift of absorption spectra from 3-1 transposition versus known regiochemistry” value (shortened to “Red shift of absorption spectra”) is listed as 60-75 nm. In addition, the Absorbance peak was found to be 675 nm in data set [3] (setting [8]) and 650 nm in data set [3] (pH 9, predominantly monoanions).
Consider `COC(=O)c1ccccc1-c1c2ccc3cccc(O)c3c2oc2c1ccc1cccc(=O)c12` [Compound 8], for which, in data set [1], the Stokes shift result is on record as “unmeasurable” and the “Red-shifted emission from 3-1 transposition versus known regiochemistry” value was “more than 160 nm”. The Longest wavelength emission result in data set [1] (pH not stated) is on record as “emission was not observed”. In addition, in data set [2], the “Shift of the absorption maximum on deprotonation” value was “does not result in a large bathochromic shift” and the “pH up to which NIR fluorescence was observed” value is given as ≤ 9. In data set [4], the Absorption maximum came to 701 nm, the “Bathochromic shift in the absorption spectrum versus known regiochemistry” value turned out to be 103 nm, the “Bathochromic shift in the fluorescence emission versus known regiochemistry” value was 128 nm and the Emission maximum is 816 nm. Besides, in data set [3] (90% aqueous 10% DMSO), the “Red shift of absorption spectra” value was 75-200 nm. The compound also returned an Absorbance peak in data set [3] (setting [8]) of 685 nm.
For the compound `Cc1ccc(C)c(-c2c3ccc4cccc(O)c4c3oc3c2ccc2cccc(=O)c23)c1` [Compound 10, 7-(2,5-dimethylphenyl)-13-hydroxy-1H-dibenzo[c,h]xanthen-1-one], the “Shift of the absorption maximum on deprotonation” value in data set [2] is “hypsochromic”.
Consider `COC(=O)c1ccccc1-c1c2ccc(=O)cc-2oc2c1ccc1cccc(N)c12` [Compound 15e], for which, in data set [2], the “Response of absorption to pH (pH titration)” value was “increased long wavelength absorption and decreased short wavelength absorption at low pH”.
With `COC(=O)c1ccccc1-c1c2ccc(=O)cc-2oc2c1ccc1cccc(O)c12` [Compound 15h], the “Enhancement of the Stokes shift by 3-1 transposition” value in data set [1] was “about 70 nm”. This compound displayed a Longest wavelength emission in data set [1] (NaOH (pH 12), anion/phenoxide) of 760 nm. For the same compound, the “Red shift of absorption spectra” value in data set [3] (90% aqueous 10% DMSO) is recorded as 50 nm. The Absorbance peak in data set [3] (setting [8]) is 595 nm and 599 nm. Further, the Quantum yield result in data set [5] (aqueous solution) is “less than 1%”.
Turning to `COC(=O)c1ccccc1-c1c2ccc(=O)cc-2oc2c1ccc1cccc(OC)c12` [Compound 16a, methyl 2-(1-methoxy-10-oxo-10H-benzo[c]xanthen-7-yl)benzoate], in data set [5] (7.5 μM, 10:90 DMSO:aqueous), the Quantum yield was 0.4649, the “Quantum yield relative to anion 20c” value is recorded as > 2 times and the “Quantum yield relative to neutral compound 15a” value was 40 times.
For `Cl.N=c1ccc2c(-c3ccccc3C(=O)O)c3ccc(N)cc3oc-2c1` [Rhodamine 110], in data set [6], the Abs is 495 nm, the Em is reported as 523 nm and the Q.Y. is given as 0.91. In data set [6] (@ 492), the Brightness is 60788 @ 492 and the ε was 66800 M⁻¹ cm⁻¹. Further, in data set [7] (DMSO:buffer 1:1), the Em was 526 nm, the Ex is 502 nm and the ε came out at 67905 M⁻¹ cm⁻¹. The Abs in data set [7] (DMSO:buffer 1:1, pH 7.4 phosphate buffer 12.5 mM) worked out at 503 nm.

The values are drawn from patent US9958451B2, “Near-infrared fluorescent dyes with large stokes shifts” (Portland State University, priority 2011, dated 2018).
